What was measured:
[1] = system: MT4; experiment: Concentration required to protect the cell against HIV-2 strain ROD viral cytopathogenicity by 50% in MT-4 cells; type: functional, cell-based, Human immunodeficiency virus 2; conditions: Homo sapiens
[2] = system: MT4; experiment: Cytotoxic concentration that reduces the MT-4 cell viability by 50%; type: functional; conditions: Homo sapiens
[3] = system: MT4; experiment: Concentration required to protect the cell against SO561945 viral cytopathogenicity by 50% in MT-4 cells; type: functional, cell-based; conditions: Homo sapiens
[4] = system: MT4; experiment: Concentration required to protect the cell against HIV-2 strain ROD viral cytopathogenicity by 50% in MT-4 cells; NA denotes not active; type: functional, cell-based, Homo sapiens

SMILES | IC50 [1] | CC50 [2] | IC50 [3] | IC50 [4]
CC(=O)CSc1nc(O)c(C)c(Cc2cccc3ccccc23)n1 | ≥ 84.9 µM | 85 µM | – | –
Cc1c(O)nc(SCC(=O)c2ccc(Cl)cc2)nc1Cc1cccc2ccccc12 | 19.8 µM | ≥ 198 µM | – | –
CCc1c(O)nc(SCC(=O)c2ccc(F)cc2)nc1Cc1cccc2ccccc12 | 16.3 µM | ≥ 240 µM | – | –
COC(=O)CSc1nc(O)c(C(C)C)c(Cc2cccc3ccccc23)n1 | > 179 µM | 179 µM | – | –
COc1ccc(C(=O)CSc2nc(O)c(C)c(Cc3cccc4ccccc34)n2)cc1 | ≥ 0.42 µM | > 290 µM | – | –
COC(=O)CSc1nc(O)c(C)c(Cc2cccc3ccccc23)n1 | ≥ 296 µM | ≥ 296 µM | – | –
Cc1ccc(C(=O)CSc2nc(O)c(C(C)C)c(Cc3cccc4ccccc34)n2)cc1 | ≥ 225 µM | 225 µM | – | –
COc1ccc(C(=O)CSc2nc(Cc3cccc4ccccc34)c(C(C)C)c(=O)[nH]2)cc1 | 13.4 µM | ≥ 203 µM | – | –
CCc1c(O)nc(SCC(=O)c2ccc(Cl)cc2)nc1Cc1cccc2ccccc12 | ≥ 0.26 µM | 56 µM | – | –
CCOC(=O)CSc1nc(O)c(C)c(Cc2cccc3ccccc23)n1 | ≥ 293 µM | ≥ 287 µM | – | –
Cc1ccc(C(=O)CSc2nc(O)c(C(C)C)c(Cc3cccc4ccccc34)n2)c(C)c1 | 4 µM | 27 µM | – | –
CCc1c(O)nc(SCC(=O)OC)nc1Cc1cccc2ccccc12 | ≥ 196 µM | ≥ 196 µM | – | –
Cc1c(O)nc(SCC(=O)c2ccc(F)cc2)nc1Cc1cccc2ccccc12 | ≥ 275 µM | ≥ 275 µM | – | –
CC(C)c1c(O)nc(SCC(=O)c2ccc(Cl)cc2)nc1Cc1cccc2ccccc12 | > 270 µM | > 270 µM | – | –
CCOC(=O)CSc1nc(O)c(C(C)C)c(Cc2cccc3ccccc23)n1 | ≥ 41.1 µM | 175 µM | – | –
CCc1c(O)nc(SCC(=O)c2ccc(C)cc2)nc1Cc1cccc2ccccc12 | ≥ 1.25 µM | 6 µM | – | –
Cc1ccc(C(=O)CSc2nc(O)c(C)c(Cc3cccc4ccccc34)n2)cc1 | ≥ 13.6 µM | ≥ 251 µM | ≥ 251 µM | –
CC(=O)CSc1nc(O)c(C(C)C)c(Cc2cccc3ccccc23)n1 | > 43.1 µM | 43 µM | – | –
CC(C)c1c(O)nc(SCC(=O)c2ccc(F)cc2)nc1Cc1cccc2ccccc12 | ≥ 32.2 µM | 186 µM | – | –
CC(C)c1c(O)nc(SCC(=O)c2ccccc2)nc1Cc1cccc2ccccc12 | 22 µM | 238 µM | – | –
CCc1c(O)nc(SCC(=O)c2ccc(OC)cc2)nc1Cc1cccc2ccccc12 | ≥ 18.9 µM | 178 µM | – | –
O=c1[nH]cnc2c1ncn2[C@H]1CC[C@@H](CO)O1 [DIDANOSINE] | 2.71 µM | ≥ 529 µM | – | –
O=C1Nc2ccc(Cl)cc2[C@@](C#CC2CC2)(C(F)(F)F)O1 [EFAVIRENZ] | – | 80 µM | – | Not Active
Cc1c(Sc2ccccc2)n(COCCO)c(=O)[nH]c1=O [HEPT] | – | 405 µM | – | Not Active
Cc1ccnc2c1NC(=O)c1cccnc1N2C1CC1 [NEVIRAPINE] | – | > 200 µM | – | Not Active
